The text below walks through data of patent US11028090B2 (Dong Wha Pharm. Co., Ltd., priority 2017, dated 2021).

Like-named read-outs stand apart in the source and are kept apart here.

In experiment [1] the test system is acute myelogenous leukemia cells (MV-4-11 cells). In words: Cytotoxicity to acute myelogenous leukemia cells (MV-4-11 cells), CCK-8. Particulars: Homo sapiens, MV4-11, 72 h.
Procedure: The following experiment was performed to evaluate the cytotoxicity of [1,2,4]triazolo[4,3-a]quinoxaline derivative according to the present invention to acute myelogenous leukemia cells (MV-4-11 cells).
Acute myelogenous leukemia cells (MV-4-11 cells) were distributed in a 96 well plate at the density of 5×10^3 cells/well. The plated cells were treated with the compounds of the present invention dissolved in DMSO at the different concentrations ranging from 0.01 μM to 10 μM. 72 hours later, the activities of the compounds were determined using CCK-8 reagent.
Experiment [2] deals with BRD4 (BD1+BD2) bromodomain (Homo sapiens (Human), UniProt O60885). Put plainly: BRD4 binding inhibition (AlphaScreen, GST-BRD4 vs tetraacetylated histone H4 peptide). In short, it runs like this:
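GST-BRD4 (BD1+BD2) and biotinylated tetraacetyl-histone H4 peptide, each at 100 nM in HEPES pH 7.4 buffer with BSA and DTT, were combined with compound. Glutathione acceptor and streptavidin donor beads were added, then incubated 30 min at room temperature in the dark. Read-out was AlphaScreen signal.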
A general note: Alpha assays give light when donor and acceptor beads are brought close together.

[3] abbreviates: read-out: MV-4-11 Cytotoxicity IC50.
[4] abbreviates: GST-BRD4 (BD1+BD2) / biotinylated acetyl-histone H4 (Lys5,8,12,16) peptide, read-out: IC50, BRD4 binding inhibition.
Where [5] appears, read: GST-BRD4 (BD1+BD2) vs biotinylated acetyl-histone H4 peptide, AlphaScreen, read-out: BRD4 IC50.

A word on the IC50: it is the point on the concentration scale where inhibition reaches its midpoint. Consider `CNc1ccc2c(c1)nc(NCCCCNC(=O)CC(C)C)c1nnc(C)n12` [Example 252, 3-methyl-N-[4-(1-methyl-7-methylamino-[1,2,4]triazolo[4,3-a]quinoxaline-4-ylamino)-butyl]-butyramide], for which, in experiment [1] (setting [3]), the half-maximal inhibitory concentration (IC50) was determined as 254 nM. For `Cc1nnc2c(NCCCCNC(=O)CC(C)C)nc3cc(NC(=O)NC(C)C)ccc3n12` [Example 255, N-{4-[7-(3-isopropyl-ureido)-1-methyl-[1,2,4]triazolo[4,3-a]quinoxaline-4-ylamino]-butyl}-3-methyl-butyramide], the IC50 in experiment [1] (read-out: IC50, cytotoxicity against acute myelogenous leukemia cells) was at most 200 nM; in experiment [1] (setting [3]) it was 93 nM. On to `Cc1noc(C)c1-c1ccc2nc(NCCCCNC(=O)[C@H](O)C(C)C)c3nnc(C)n3c2c1` [Example 581, N-{4-[8-(3,5-dimethyl-isoxazol-4-yl)-1-methyl-[1,2,4]triazolo[4,3-a]quinoxaline-4-ylamino]-butyl}-2-(R)-hydroxy-3-methyl-butyramide], for which the results for the half-maximal inhibitory concentration (IC50) in experiment [2] (setting [4]) and in experiment [2] (setting [5]) were at most 50 nM and 24 nM, respectively. The like results for `Cc1noc(C)c1-c1ccc2nc(NCCCCNC(=O)[C@@H](O)C(C)C)c3nnc(C)n3c2c1` [Example 582, N-{4-[8-(3,5-dimethyl-isoxazol-4-yl)-1-methyl-[1,2,4]triazolo[4,3-a]quinoxaline-4-ylamino]-butyl}-2-(S)-hydroxy-3-methyl-butyramide] were, in that order, at most 10 nM and 10 nM. Take `Cc1noc(C)c1-c1ccc2c(c1)nc(NCCCCNC(=O)OC(C)(C)C)c1nnc(C)n12` [Example 583, {4-[7-(3,5-dimethyl-isoxazol-4-yl)-1-methyl-[1,2,4]triazolo[4,3-a]quinoxaline-4-ylamino]-butyl}-carbamic acid-tert-butylester]: the IC50 in experiment [2] (setting [4]) was at most 10 nM; in experiment [2] (setting [5]), 5 nM. In the same order, the values of `Cc1noc(C)c1-c1ccc2c(c1)nc(NCCCCNC(=O)[C@H](O)C(C)C)c1nnc(C)n12` [Example 586, N-{4-[7-(3,5-dimethyl-isoxazol-4-yl)-1-methyl-[1,2,4]triazolo[4,3-a]quinoxaline-4-ylamino]-butyl}-2-(R)-hydroxy-3-methyl-butyramide] are at most 50 nM and 24 nM. As to `Cc1noc(C)c1-c1ccc2c(c1)nc(NCCCCNC(=O)[C@@H](O)C(C)C)c1nnc(C)n12` [Example 587, N-{4-[7-(3,5-dimethyl-isoxazol-4-yl)-1-methyl-[1,2,4]triazolo[4,3-a]quinoxaline-4-ylamino]-butyl}-2-(S)-hydroxy-3-methyl-butyramide], the IC50 in experiment [2] (setting [4]) was at most 10 nM; in experiment [2] (setting [5]), 7 nM. `COc1ccc2c(c1)nc(NCCCCNC(=O)OC(C)C)c1nnc(C(F)(F)F)n12` [Example 589, [4-(7-methoxy-1-trifluoromethyl-[1,2,4]triazolo[4,3-a]quinoxaline-4-ylamino)-butyl]-carbamic acid isopropylester]: the 50% inhibitory concentration (IC50) in experiment [2] (setting [4]) is at most 50 nM; in experiment [2] (setting [5]) it was 46 nM. Turning to `COc1cc2nc(NCCCCNC(=O)CC(C)C)c3nnc(C(F)(F)F)n3c2cc1OC` [Example 593, N-[4-(7,8-dimethoxy-1-trifluoromethyl-[1,2,4]triazolo[4,3-a]quinoxaline-4-ylamino)-butyl]-3-methyl-butyramide], in experiment [2] (setting [5]), the IC50 worked out at 92 nM.

Regarding `COc1cc2nc(NCCCCNC(=O)CC(C)C)c3nnc(C(C)C)n3c2cc1OC` [Example 603, N-[4-(1-isopropyl-7,8-dimethoxy-[1,2,4]triazolo[4,3-a]quinoxaline-4-ylamino)-butyl]-3-methyl-butyramide], the half-maximal inhibitory concentration (IC50) in experiment [2] (setting [4]) was at most 50 nM; in experiment [2] (setting [5]), 34 nM. For `COc1ccc2c(c1)nc(NCCCCNC(=O)CC(C)C)c1nnc(C(C)C)n12` [Example 627], the IC50 in experiment [2] (setting [4]) was at most 50 nM; in experiment [2] (setting [5]), 23 nM. The like results for `COc1ccc2c(c1)nc(NCCCCNC(=O)OC(C)C)c1nnc(C(C)C)n12` [Example 628, [4-(1-isopropyl-7-methoxy-[1,2,4]triazolo[4,3-a]quinoxaline-4-ylamino)-butyl]-carbamic acid isopropylester] were, in that order, at most 50 nM and 48 nM. As to `COc1ccc2c(c1)nc(NCCCCNC(=O)OCC(C)C)c1nnc(C(C)C)n12` [Example 629, [4-(1-isopropyl-7-methoxy-[1,2,4]triazolo[4,3-a]quinoxaline-4-ylamino)-butyl]-carbamic acid isobutylester], the IC50 in experiment [2] (setting [4]) is at most 50 nM; in experiment [2] (setting [5]) it was 16 nM. In the same order, the values of `Cc1nnc2c(NCCCCOC(=O)C(C)(C)C)nc3ccccc3n12` [Example 631, 2,2-dimethyl-propionic acid-4-(1-methyl-[1,2,4]triazolo[4,3-a]quinoxaline-4-ylamino)-butylester] are at most 50 nM and 47 nM. In the same order, the values of `Cc1nnc2c(NCCCCOC(=O)C(C)C)nc3ccccc3n12` [Example 632] are at most 50 nM and 44 nM.

As to `Cc1nnc2c(NCCCCOC(=O)c3ccccc3)nc3ccccc3n12` [Example 634, benzoic acid-4-(1-methyl-[1,2,4]triazolo[4,3-a]quinoxaline-4-ylamino)-butylester], the half-maximal inhibitory concentration (IC50) in experiment [2] (setting [5]) was determined as 91 nM. Consider `COc1cc2nc(NCCCCCNC(=O)OC(C)(C)C)c3nnc(C)n3c2cc1OC` [Example 642, [5-(7,8-dimethoxy-1-methyl-[1,2,4]triazolo[4,3-a]quinoxaline-4-ylamino)-pentyl]-carbamic acid-tert-butylester], for which, in experiment [2] (setting [5]), the IC50 was 56 nM. On the same count and under the same terms, in the case of `COc1cc2nc(NCCCCC(=O)NC(C)(C)C)c3nnc(C)n3c2cc1OC` [Example 646] it was 56 nM. On to `COc1cc2nc(NCCCCC(=O)NC(C)C)c3nnc(C)n3c2cc1OC` [Example 647, 5-(7,8-dimethoxy-1-methyl-[1,2,4]triazolo[4,3-a]quinoxaline-4-ylamino)-pentanoic acid-isopropylamide], for which the IC50 in experiment [2] (setting [4]) was at most 50 nM; in experiment [2] (setting [5]), 29 nM. As to `COc1ccc2c(c1)nc(NCCCCC(=O)NC(C)(C)C)c1nnc(C)n12` [Example 653, 5-(7-methoxy-1-methyl-[1,2,4]triazolo[4,3-a]quinoxaline-4-ylamino)-pentanoic acid-tert-butylamide], the concentration for half-maximal inhibition (IC50) in experiment [2] (setting [4]) was at most 50 nM; in experiment [2] (setting [5]), 16 nM. In the same order, the values of `COc1ccc2c(c1)nc(NCCCCC(=O)NCc1ccccc1)c1nnc(C)n12` [Example 658] are at most 50 nM and 26 nM. Consider `Cc1nnc2c(NCCCCC(=O)NC(C)C)nc3ccccc3n12` [Example 659, 5-(1-methyl-[1,2,4]triazolo[4,3-a]quinoxaline-4-ylamino)-pentanoic acid isopropylamide], for which the 50% inhibitory concentration (IC50) in experiment [2] (setting [5]) is 75 nM. The same measure, in the same setting: in the case of `Cc1nnc2c(NCCCCCC(=O)NC(C)C)nc3ccccc3n12` [Example 661, 6-(1-methyl-[1,2,4]triazolo[4,3-a]quinoxaline-4-ylamino)-hexanoic acid isopropylamide] it was 78 nM. Turning to `Cc1nnc2c(NCCCCCC(=O)NCC(C)C)nc3ccccc3n12` [Example 662, 6-(1-methyl-[1,2,4]triazolo[4,3-a]quinoxaline-4-ylamino)-hexanoic acid isobutylamide], the concentration for half-maximal inhibition (IC50) in experiment [2] (setting [4]) was at most 50 nM; in experiment [2] (setting [5]) it was 39 nM.

For the compound “N-(4-{7-[4-(N-hydroxycarbamimidoyl)-benzoyl]-1-methyl-[1,2,4]triazolo[4,3-a]quinoxaline-4-ylamino}-butyl)-3-methyl-butyramide [Example 347]”, the values for the 50% inhibitory concentration (IC50) in experiment [2] (setting [4]) and in experiment [2] (setting [5]) were at most 50 nM and 18 nM, respectively.
